Data from US9464064B2, “HCV helicase inhibitors and methods of use thereof” (University of Kansas, priority 2011, dated 2016).
Read-outs that look alike come from different tables or passages of the source.

Key:
MBHA DNA substrate = assay: Fluorescent intercalation displacement (FID) assay, ethidium bromide; type: binding; settings: for EC50: FID, mean ± SD, read-out: DNA Binding (Ethidium Bromide) EC50
Experimental: Fluorescent intercalation displacement (FID) assays (Boger, et al. (2001) J. Am. Chem. Soc. 123:5878-5891) were used to measure the ability of a compound to bind the MBHA substrate. The concentration at which half the ethidium bromide is displaced (EC50) was determined using the different conditions as above to more closely mimic the conditions of a standard helicase assay. Each 100 μL reaction contained 25 mM MOPS pH 6.5, 0.16 μM MBHA DNA substrate (lacking Cy5 and IBQ-RQ modifications), 2 μM ethidium bromide, and various concentrations of test compound. Fluorescence of ethidium bromide was monitored using excitation and emission wavelengths of 545 and 595 nm, respectively, on a Cary Eclipse fluorescence spectrophotometer in white 96-well plates. The amount of ethidium bromide-DNA complex fluorescence was used to estimate the ability of compounds to bind DNA, and therefore displace the fluorescent intercalator (ethidium bromide).
In Equation 4, Fc is the fluorescence in the presence of the compound, F(−) is the average DMSO-only negative controls, and F(+) is the average positive controls (100 μM berenil). EC50 values were from a normalized dose-response curve.
These twelve hits were then subjected to a counterscreen designed to independently identify DNA binding compounds using a modified fluorescent intercalator displacement (FID) assay (Boger, et al. (2001) supra). The FID assay used ethidium bromide to judge a compound's ability to bind DNA and was based on the assumption that a DNA binding compound would displace a fluorescent DNA intercalating agent, leading to an observable decrease in observed fluorescence. Compounds were tested at 1.5 μM in the presence of the 25 base pair substrate used in the helicase assays.

[1] = biological target: T1, E. coli SSB-Cy5-dT15 complex (Escherichia coli, UniProt P0AGE0); assay: Escherichia coli SSB Cy5-dT15 binding assay (fluorescence polarization); settings: disruption of Cy5-dT15-SSB complex; read-out: Cy5-dT15-SSB Binding IC50
T1 construct: purchased Promega
T1 sequence (P0AGE0 2-178, one chain of several): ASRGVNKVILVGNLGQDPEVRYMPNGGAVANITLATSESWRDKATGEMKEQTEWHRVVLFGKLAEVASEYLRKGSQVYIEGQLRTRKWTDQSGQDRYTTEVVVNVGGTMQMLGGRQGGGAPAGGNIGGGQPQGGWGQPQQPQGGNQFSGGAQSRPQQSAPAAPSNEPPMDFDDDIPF
Experimental: The Escherichia coli SSB assay was performed in a total volume of 20.2 μl in 384-well, flat-bottom, low volume, black microplates (Greiner Bio-One). First, 20 μl of a assay solution (5 nM Cy5-[…]-3′ (Cy5-dT15, SEQ ID NO:5), 20 nM E. coli SSB (Promega), 25 mM MOPS, pH 7.5, 1.25 mM MgCl2, 0.0025 mg/ml BSA, 0.005% (v/v) TWEEN 20 and 0.025 mM DTT) was dispensed in each well, then 0.2 μl of dimethylsulfoxide (DMSO) or compound dissolved in DMSO was added by pin transfer, such that the final concentration of DMSO was 1% (v/v) in each assay.
For IC50 determination, assays were performed with 60 μl total volume in black flat bottomed 384-well microplates (Corning). First, 3.0 μl of DMSO or compound dissolved in DMSO was added, such that the final concentration of DMSO was 5% (v/v) in each assay. Then 57 μl of a assay solution (5 nM Cy5-dT15, 20 nM SSB, 25 mM MOPS, pH 7.5, 1.25 mM MgCl2, 0.0025 mg/ml BSA, 0.005% (v/v) TWEEN 20 and 0.025 mM DTT) was dispensed in each well. Polarization was monitored with a TECAN Infinite M1000 PRO multi-mode microplate reader by exciting at 635 nm (5 nm bandwidth) and measuring total fluorescence intensity, parallel and perpendicular polarized light at 667 nm (20 nm bandwidth).

NS3h_1b(con1) = biological target: T2, NS3h_1b(con1) (Hepatitis C virus genotype 1b, UniProt Q9WMX2); assay: ATP hydrolysis assay (malachite green); type: biochemical
T2 construct: truncated C-terminally His-tagged NS3 proteins lacking the N-terminal protease, called NS3h; His-tag (C); made in house
T2 sequence (Q9WMX2 1192-1657): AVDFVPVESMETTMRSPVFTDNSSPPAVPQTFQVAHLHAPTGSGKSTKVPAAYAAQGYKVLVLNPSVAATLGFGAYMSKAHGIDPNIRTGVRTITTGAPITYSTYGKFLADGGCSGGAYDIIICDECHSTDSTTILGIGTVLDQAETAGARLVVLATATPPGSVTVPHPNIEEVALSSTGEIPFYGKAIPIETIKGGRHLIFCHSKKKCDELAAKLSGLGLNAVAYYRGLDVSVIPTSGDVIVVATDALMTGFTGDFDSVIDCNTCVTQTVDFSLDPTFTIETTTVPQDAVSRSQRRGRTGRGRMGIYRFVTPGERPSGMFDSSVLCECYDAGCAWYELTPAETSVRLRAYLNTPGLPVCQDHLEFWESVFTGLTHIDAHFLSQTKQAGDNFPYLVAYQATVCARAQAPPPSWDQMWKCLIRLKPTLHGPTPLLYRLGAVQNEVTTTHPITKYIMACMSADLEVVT
Experimental: A modified “malachite green” assay (Lanzetta, et al. (1979) Anal. Biochem. 100:95-97) was used to measure ATP hydrolysis. Fifty μL reactions contained 25 mM MOPS pH 6.5, 5 mM MgCl2, 2 mM ATP, 5 μg/mL BSA, 0.01% (v/v) TWEEN 20, 0.05 mM DTT, and poly(U) RNA (Saint Louis, Mo.) as indicated. Reactions were initiated by adding NS3h_1b(con1). Reactions were incubated for 15 minutes at 37° C. then stopped by mixing 40 μL of the reaction into 200 μL of the malachite green reagent (3 volumes 0.045% (w/v) malachite green, 1 volume 4.2% ammonium molybdate in 4N HCl, 0.05 volume of 20% TWEEN 20). […] Absorbance at 630 nm was proportional to the concentration of phosphate produced; free phosphate produced was measured against a standard curve.

[2] = biological target: T3, HCV NS3 helicase NS3h_1b(con1) (Hepatitis C virus genotype 1b, UniProt Q9WMX2); assay: biochemical; type: biochemical, hepatitis C virus genotype 1b(con1)
T3 construct: truncated C-terminally His-tagged NS3 proteins lacking the N-terminal protease, called NS3h; His-tag (C); made in house
T3 sequence (Q9WMX2 1192-1657): as above
Excerpt: All oligonucleotides were purchased from Integrated DNA Technologies (IDT, Coralville, Iowa). The partially duplex DNA substrates used in MBHAs consisted of a helicase substrate forming 25 base pairs and consists of a 45-mer bottom strand 5′-GCTCCCCGTTCATCGATTGGGGAGC(T)20-3′ (SEQ ID NO:1) and the 25-mer HCV top strand 5′-Cy5-GCTCCCCAATCGATGAACGGGGAGC-IBRQ-3′ (SEQ ID NO:2). The 19 base pair RNA substrate used in MBHAs was composed of a 39 nucleotide long bottom strand 5′-AGU GCC UUG ACG AUA CAG C(U)20-3′ (SEQ ID NO:3) and the 24 nucleotide long top strand 5′-Tye^665-AGUGCGCUGUAUCGUCAAGGCACU-IBRQSp-3′ (SEQ ID NO:4). Underlined areas denote hairpin-forming regions. DNA and RNA substrates were annealed and purified as described previously (Belon & Frick (2008) BioTechniques 45:433-40, 442).
The cloning, expression, and purification of His-tagged recombinant HCV NS3 protein have been described previously (Lam, et al. (20030 J. Virol. 77:3950-61; Heck, et al. (2008) Antimicrob. Agents Chemother. 52:1901-11; Frick et al. (2010) Methods Mol. Biol. 587:223-233; Belon, et al. & Frick (2009) J. Mol. Biol. 388:851-864).
All molecular beacon-based helicase assays (MBHAs) were performed according to known methods (Belon & Frick (2008) supra; Belon & Frick (2009) supra). […] In each flat, black 384-well plate, 56 compounds were tested, in triplicate, along with three negative controls (DMSO only), three positive controls (500 nM dT20), and two wells with no enzyme. Fluorescence was read before ATP (F0) addition and 30 minutes after ATP was added to 1 mM (F30) using a Tecan Infinite M200 fluorescence microplate reader with excitation and emission wavelengths set to 643 and 670 nm, respectively. Percent inhibition was calculated with equation 1, and compound interference in the MBHA was calculated with equation 2.
To monitor helicase reaction kinetics and to calculate IC50 values, MBHAs were performed in 60 μL in white ½ area 96-well plates and measured in a Thermo Varioscan Multimode reader (Thermo Scientific) using the 643 nm excitation wavelength and 667 emission wavelengths. Reactions were again performed by first incubating all components except for ATP for two minutes, then initiated by injecting in 1/10 volume of ATP such that the final concentration of all components was as noted above. Conditions were as described above except that 5% v/v DMSO was present in each assay. Initial reaction velocities were calculated by fitting first-order decay equation to data obtained after ATP addition and calculating an initial velocity form the resulting amplitude and rate constant.
[formula] where, v0 is the velocity observed in DMSO-only controls inhibition, h is the Hillslope coefficient, [I] is the concentration of test compound.

[3] = biological target: T3, HCV NS3 helicase NS3h_1b(con1); assay: MBHA screen of NCI mechanistic set library at 20 μM (percent inhibition, compound interference); type: biochemical; settings: compounds at 20 μM; for Inh. (%) (Inhibition): calculated from Equation 1
Outline: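 Molecular beacon-based DNA unwinding assay; compounds screened at 20 μM in triplicate, with DMSO-only negative and 500 nM dT20 positive controls. Fluorescence (ex 643/em 670 nm) was read before and 30 min after adding ATP to 1 mM. Percent inhibition came from the change relative to DMSO controls; interference from pre-ATP fluorescence versus DMSO controls.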

[4] = MBHA, DNA unwinding, mean ± SD of three titrations, read-out: Helicase IC50
[5] = standard HCV helicase MBHA (Table 9), read-out: DNA Unwinding IC50
[6] = MBHA with DNA substrate, assay interference calculated with Equation 2
[7] = assay interference calculated with Equation 2 (fluorescence vs DMSO-only controls before ATP)

SMILES | Int.* (Ratio) (Interference) [3, 6] | Inh. (%) (Inhibition) ([3]; MBHA with DNA substrate) | also measured
N=C(N)c1ccc(N=NNc2ccc(C(=N)N)cc2)cc1 [Berenil, reference compound] | – | – | IC50 (MBHA DNA substrate; ethidium bromide FID, read-out: IC50 in FID assays (positive control)): 1.6 ± 0.1 µM
CCN(CC)c1ccc(-c2nc3ccc(C)c(S(=O)(=O)O)c3s2)cc1 [Compound T1, 2-(4-(diethylamino)phenyl)-6-methylbenzo[d]thiazole-7-sulfonic acid] | – | – | IC50 [1]: 7 ± 2 µM; IC50 (NS3h_1b(con1)): > 100 µM; IC50 [2, 4]: 33 ± 24 µM; IC50 [2, 5]: 33 ± 24 µM; EC50 (MBHA DNA substrate): > 100 µM
CCN(CC)c1ccc(-c2nc3ccc(-c4nc5ccc(C)c(S(=O)(=O)O)c5s4)cc3s2)cc1 [Compound T2, 2′-(4-(diethylamino)phenyl)-6-methyl-[2,6′-bibenzo[d]thiazole]-7-sulfonic acid] | – | – | IC50 [1]: 2 µM; IC50 [2, 4]: 26 ± 21 µM; IC50 [2, 5]: 5 ± 2 µM; EC50 (MBHA DNA substrate): > 100 µM
Cc1c2ccncc2c(C)c2c1[nH]c1ccccc12 [ellipticine, reference compound] | – | – | IC50 [2, 4]: 5.6 ± 0.8 µM
[O-][n+]1ccccc1[S-].[O-][n+]1ccccc1[S-].[Zn+2] [Compound 68093] | 0.90 Ratio | 19.5% | –
COC1CC(CC2CCC(C)C(C(C)C(=O)O)O2)OC2(OC(C)(C3CCC(C)(C4OC(C5OC(O)(CO)C(C)CC5C)CC4C)O3)CC2C)C1C (stereo not shown) [Compound 292567] | 0.85 Ratio | −11.3% | –
CC12CCC3C(CCC4CC(OC(=O)Cc5ccc(N(CCCl)CCCl)cc5)CCC43C)C1CCC(=O)N2 (stereo not shown) [Compound 290205] | 1.03 Ratio | 34.9% | –
N=C1C=C(N)C(=O)c2[nH]c(=O)ccc21 [Compound 111041] | – | – | Inh. (%) (Inhibition) ([3]; MBHA with a DNA substrate): −26.9%; Int.* (Ratio) (Interference) [3, 7]: 0.97 Ratio
COc1cc2c3c(n(C)c(=O)c2cc1OC)-c1cc2c(cc1C3=O)OCO2 [Compound 314622] | 0.70 Ratio | 23.1% | –
COc1cc(NS(C)(=O)=O)ccc1Nc1c2ccccc2nc2ccccc12 [Compound 249992] | 1.08 Ratio | 3.0% | –
O=[N+]([O-])[O-].O=[N+]([O-])[O-].O=[N+]([O-])[O-].[Ga+3] [Compound 15200] | 0.75 Ratio | 53.4% | –
O=C(/C=C/c1c(O)ccc2ccccc12)c1cccc(O)c1 [Compound 636786] | – | – | Inh. (%) (Inhibition) ([3]; MBHA with a DNA substrate): 8.8%; Int.* (Ratio) (Interference) [3, 7]: 0.91 Ratio

Further lines, with some results ahead:

Int.* (Ratio) (Interference) [3, 6] | Inh. (%) (Inhibition) ([3]; MBHA with DNA substrate) | SMILES | also measured
0.89 Ratio | 33.3% | S=C1Nc2cnc3ccccc3c2SC1c1ccccc1 (stereo not shown) [Compound 667467] | –
0.89 Ratio | 16.8% | CC(C)=CC1C(C(=O)O)C1(C)C (stereo not shown) [Compound 11779] | –
0.88 Ratio | 3.5% | CC(=O)OC1CC(n2cc(F)c(=O)[nH]c2=O)OC1CO (stereo not shown) [Compound 407335] | –
0.96 Ratio | −13.0% | N#CC(C#N)=Cc1ccc(Oc2ccccc2)cc1 [Compound 643028] | –
1.10 Ratio | −8.6% | CN1CCC23c4ccccc4NC1C21CCN(C)C3Nc2ccccc21 [Compound 99016] | –
0.98 Ratio | −0.7% | Cc1ccc2c(c1)C1(C)OC(C=CC1=O)O2 (stereo not shown) [Compound 359892] | –
0.90 Ratio | 13.5% | CC/C(=C(\c1ccccc1)c1ccc(OCCN(C)C)cc1)c1ccccc1.O=C(O)CC(O)(CC(=O)O)C(=O)O [Compound 180973] | –
1.09 Ratio | 4.9% | COC1=CC(=O)c2c(ccc3ncnc(N)c23)C1=O [Compound 622190] | –
